# Laboratory results reported in patent publication US20250041264A1, “METHOD FOR TREATING DIABETES BY USING ANTRODIA CAMPHORATA COMPOUND” (Lantyng Biotechnology Corp., priority 2023, published 2025).
# Entries after “also recorded” stand apart in the source; their conditions may differ.
# Columns and labels:
# Type 2 Diabetic Mice [1] = assay: Oral glucose tolerance test (OGTT), final week (16th week), high-fat-diet type 2 diabetic mice; format: in vivo, mice C57BL/6JNarl; conditions: for average blood sugar at 120 minutes (OGTT): n=6, 120 minutes
# Description: This experiment uses four-week-old male mice C57BL/6JNarl from National Laboratory Animal Center (Taipei, Taiwan), and they were bred with 12 hours of light/dark cycle under the environment of 23° C.±2° C. Mice were adapted to feed water and food arbitrarily every week, and after one week, they were fed in groups from the commercial feed 1320 (containing 11% fat) purchased from EJOY2 CORP. (New Taipei City, Taiwan) and D12451 (containing 45% high-fat feed) purchased from […] CO., LTD. (Taichung, Taiwan), induced for 12 weeks. During the experiment, the body weight of the mice and the fasting blood sugar value were measured every week and their changes were recorded. The mean±3SD of fasting blood sugar in mice was calculated. If the fasting blood sugar value exceeds the mean±3SD of the normal diet group, tube feeding administration would be started for 4 weeks, and blood sugar tolerance would be tested by tail vein blood collection in the last week of the experiment. […] Referring to FIGS. 1-2, they show the test results of oral glucose tolerance test (OGTT), respectively. Group A (NFD), Group B (NFD+5), Group C (NFD+20), Group D (HFD), Group E (HFD+5), Group F (HFD+10), Group G (HFD+20), Group H (Glibenclamide). NFD refers to normal fat diet, HFD refers to high fat diet, and Glibenclamide is an oral hypoglycemic drug that belongs to type 2 (non-insulin dependent) diabetic patients.
# Type 2 Diabetic Mice [2] = assay: ALT and AST biochemical analysis in blood (liver function); format: in vivo; conditions: later stage of treatment (4 weeks), Hitachi 7080 blood biochemical analyzer
# Description: Mice were adapted to feed water and food arbitrarily every week, and after one week, they were fed in groups from the commercial feed 1320 (containing 11% fat) purchased from EJOY2 CORP. (New Taipei City, Taiwan) and D12451 (containing 45% high-fat feed) purchased from MEDGENE CO., LTD. (Taichung, Taiwan), induced for 12 weeks.
# On the last day of the experiment, all animals (except for unplanned deaths) were fasted for 20 hours at the National Laboratory Animal Center and euthanized with pure carbon dioxide, followed by necropsy, organ weight (liver) and gross examination, including evaluation of liver and pancreas. Most lesions of animals were recorded at the time of final sacrifice, including scheduled euthanasia and unscheduled deaths. […]
# Type 2 Diabetic Mice [3] = assay: Low-density lipoprotein (LDL) detection; format: in vivo, mice C57BL/6JNarl; conditions: HFD+5 group (SY1 5 mg/kg) compared with Western medicine group and HFD+10
compound,measurement,setting,value
"COc1ccc(Cl)cc1C(=O)NCCc1ccc(S(=O)(=O)NC(=O)NC2CCCCC2)cc1 [Glibenclamide, reference compound]","fasting blood sugar when no sugar water was fed (OGTT, 16th week)","Type 2 Diabetic Mice [1]; HFD, Glibenclamide 5 mg/kg, after 4 weeks of drug treatment",higher fasting blood sugar increase than any other group
same,effect on lowering blood sugar in the later stage of treatment,"Type 2 Diabetic Mice [1]; HFD, Glibenclamide 5 mg/kg, after 4 weeks of drug treatment, compared with SY1",worse than that of SY1
same,"liver function index (AST, ALT in blood)",Type 2 Diabetic Mice [2],increased and reached a significant difference
"COc1cc(C)c(OC)c2c1OCO2 [SY1, 4,7-dimethoxy-5-methyl-1,3-benzodioxole]",hypoglycemic effect compared with other groups (OGTT),"Type 2 Diabetic Mice [1]; HFD+5 group (SY1 5 mg/kg) versus HFD+10, HFD+20 and Glibenclamide groups, 5 mg/kg",equivalent to that of the HFD+10 group; also recorded: more obvious than the high-dose HFD+20 and hypoglycemic drug Glibenclamide group
same,average blood sugar at 120 minutes (OGTT),"Type 2 Diabetic Mice [1]; HFD+5 group (high fat diet, SY1 5 mg/kg, tube feeding 4 weeks)",155.83
same,effect on lowering blood sugar 30 minutes after feeding sugar water (OGTT),Type 2 Diabetic Mice [1]; HFD+5 low-dose group (SY1 5 mg/kg),obvious effect on lowering blood sugar
same,average blood sugar at 120 minutes (OGTT),"Type 2 Diabetic Mice [1]; HFD+10 group (high fat diet, SY1 10 mg/kg, tube feeding 4 weeks)",155.33
same,effect on lowering blood sugar 30 minutes after feeding sugar water (OGTT),Type 2 Diabetic Mice [1]; HFD+10 middle-dose group (SY1 10 mg/kg),obvious effect on lowering blood sugar
same,"liver function index (AST, ALT in blood)",Type 2 Diabetic Mice [2],this phenomenon was not seen
same,effect on lowering LDL,Type 2 Diabetic Mice [3],not much different from that of the Western medicine group; also recorded: better than HFD+10
